Reference: PMC9848351, “Discovery of new pyridine-quinoline hybrids as competitive and non-competitive PIM-1 kinase inhibitors with apoptosis induction and caspase 3/7 activation capabilities” (Journal of Enzyme Inhibition and Medicinal Chemistry, 2023)

What was measured:
[1] = tested on: normal human lung fibroblast Wi-38 cell line; experiment: MTT cytotoxicity on normal cells; type: cell-based; conditions: Wi-38, 72 h, MTT, mean ± SEM; for EC50: Homo sapiens, 50% cell viability; for Wi-38 EC100: safe dose, 100% cell viability
Experimental: Cytotoxicity of the tested compounds was evaluated using normal human lung fibroblast Wi-38 cell line compared to currently used anticancer drug (doxorubicin) using MTT method was used for assaying cell viability[26] (Supplementary Page S55).
Cytotoxicity test is one of the biological evaluations and screening tests that use human normal and cancer cells in-vitro to observe the effect of the studied compounds on their growth using MTT-based cytotoxicity. Microculture MTT method[26] was used to determine cytotoxic activity of the newly synthesised compounds against normal human lung fibroblast (Wi-38) using doxorubicin (Dox) as standard anticancer drug. The highest IC50 and EC100 values illustrate that the compounds were safe on the proliferation of normal human cells. […]. page 47:
(§1) Cytotoxicity of the tested compounds was evaluated using normal human lung fibroblast Wi-38 cell line compared to currently used anticancer drug (doxorubicin).
Firstly, Wi-38 cell line was subcultured in DMEM medium-contained 10% fetal bovine serum (FBS), then, seeded as 5x10^3 cells per well in 96-well cell culture plate and incubated at 37 °C in 5% CO 2 incubator. Serial concentrations of these compounds and doxorubicin (Dox) were incubat ed with Wi-38 cells for 72 h after 24 h for cell attachment. MTT method was used for assaying cell viability 25. Twenty microliters of 5 mg/ml MTT (Sigma, USA) was added to each well and the plate was incubated at 37 °C for 3 h. Then MTT solution was removed, 100 µl DMSO was used and the absorbance of each well was measured with a microplate reader ( BMG LabTech, Germany) at 570 nm. The effective concentration (IC 50) and safe dose (EC100) values of the tested compounds that cause 50% and 100% cell viability were estimated by the Graphpad Instat software. […]

[2] = tested on: liver cancer cell line (HepG-2); experiment: MTT anticancer activity, HepG-2; type: cell-based, human; conditions: Homo sapiens, HepG2; HepG-2, 72 h, MTT; mean ± SEM
Experimental: (§2) Anticancer effect of the above-mentioned compounds was evaluated using four human cancer cell lines. Colon cancer cells (Caco-2), myeloid leukaemia cell line (NFS-60), liver cancer cell line (HepG-2) and prostate cancer cell line (PC-3) using MTT method was used for assaying cell viability[26] (Supplementary Page S55).
(§3) All final compounds were evaluated against four human cancer cell lines namely; liver cancer (HepG2) (ATCC® HB-8065™), colon cancer (Caco-2) (ATCC® HTB-37™), leukaemia cancer (NFS-60) (ATCC® CRL-1838™), and prostate cancer (PC-3) (ATCC® CRL-1435™) using doxorubicin (Dox) as the reference drug being widely used in tumour management utilising microculture MTT assay, declared by Mosmann[26] (Table 1 in Supplementary Material, Figures 5–8). […]
(§4) MTT method was used for assaying cell viability 25. Twenty microliters of 5 mg/ml MTT (Sigma, USA) was added to each well and the plate was incubated at 37 °C for 3 h. Then MTT solution was removed, 100 µl DMSO was used and the absorbance of each well was measured with a microplate reader ( BMG LabTech, Germany) at 570 nm. The effective concentration (IC 50) and safe dose (EC100) values of the tested compounds that cause 50% and 100% cell viability were estimated by the Graphpad Instat software.
(§5) Determination of the anticancer activity
(§6) Anticancer effect of the above-mentioned compounds was evaluated using four human cancer cell lines. Colon cancer cells (Caco-2) were maintained in DMEM (Lonza, USA) containing 10% FBS while myeloid leukemia cell line (NFS-60), liver cancer cell line (HepG-2) and prostate cancer cell line (PC-3) were cultured in RPMI-1640 (Lonza, USA) supplemented with 10% FBS. All cancer cells (5x10^3 cells/well) were seeded in sterile 96-well plates. After 24h, serial concentrations of the tested compounds and Dox were incubated with four cancer cell lines for 72 h at 37 °C in 5% CO2 incubator. MTT method was done as described above. The Graphpad Instat software was used for calculating the half maximal inhibitory concentration (IC50) values. Furthermore, phase contrast inverted microscope with a digital camera (Olympus, Japan) was used for investigating […]
(§7) safest anticancer compounds. […]

[3] = tested on: prostate cancer cell line (PC-3); experiment: MTT anticancer activity, PC-3; type: cell-based, human; conditions: Homo sapiens, 72 h, PC-3, 72 h, mean ± SEM
Experimental: as §2, §3, §4, §5, §6, §7

[4] = tested on: myeloid leukaemia cell line (NFS-60); experiment: MTT anticancer activity, NFS-60; type: cell-based; conditions: NFS-60, 72 h, MTT; mean ± SEM
Experimental: as §2, §3, §4, §5, §6, §7

[5] = tested on: Colon cancer cells (Caco-2); experiment: MTT anticancer activity, Caco-2; type: cell-based, human; conditions: for IC50: Homo sapiens, Caco-2, 72 h, MTT, mean ± SEM; for Caco-2 SI: selectivity index, Wi-38 versus Caco-2
Experimental: as §2
All final compounds were evaluated against four human cancer cell lines namely; liver cancer (HepG2) (ATCC® HB-8065™), colon cancer (Caco-2) (ATCC® HTB-37™), leukaemia cancer (NFS-60) (ATCC® CRL-1838™), and prostate cancer (PC-3) (ATCC® CRL-1435™) using doxorubicin (Dox) as the reference drug being widely used in tumour management utilising microculture MTT assay, declared by Mosmann[26] (Table 1 in Supplementary Material, Figures 5–8).
as §1
Firstly, Wi-38 cell line was subcultured in DMEM medium-contained 10% fetal bovine serum (FBS), then, seeded as 5x10^3 cells per well in 96-well cell culture plate and incubated at 37 °C in 5% CO 2 incubator. Serial concentrations of these compounds and doxorubicin (Dox) were incubat ed with Wi-38 cells for 72 h after 24 h for cell attachment. MTT method was used for assaying cell viability 25. Twenty microliters of 5 mg/ml MTT (Sigma, USA) was added to each well and the plate was incubated at 37 °C for 3 h. Then MTT solution was removed, 100 µl DMSO was used and the absorbance of each well was measured with a microplate reader ( BMG LabTech, Germany) at 570 nm. The effective concentration (IC 50) and safe dose (EC100) values of the tested compounds that cause 50% and 100% cell viability were estimated by the Graphpad Instat software.
as §5, §6, §7

Row | Compound | IC50 [2] [nM] | IC50 [3] [nM] | melting point [°C] | IC50 [4] [nM] | IC50 [5] [nM] | EC50 [1] [nM] | Wi-38 EC100 [1] [µM] | Caco-2 SI [5]
1 | N#Cc1c(-c2cc3ccccc3nc2N2CCCCC2)cc(-c2cccc(O)c2)[nH]c1=O [5d, 6-(3-Hydroxyphenyl)-2-oxo-4-(2-(piperidin-1-yl)quinoline-3-yl)-1,2-dihydropyridine-3-carbonitrile] | 89.7 ± 13 | 53.4 ± 4 | 244 to 246 | 71.3 ± 3 | 38.6 ± 1 | 29.9 ± 0.1 | 0.0239 ± 0.0003 | 0.775
2 | COc1ccc2[nH]c(=O)c(-c3cc(-c4cccc(O)c4)nc(N)c3C#N)cc2c1 [15c, 2-Amino-6-(3-hydroxyphenyl)-4-(6-methoxy-2-oxo-1,2-dihydroquinolin-3-yl)pyridine-3-carbonitrile] | 107 ± 11 | 143 ± 13 | 259 to 260 | 122 ± 1 | 141 ± 21 | 121 ± 2 | 0.101 ± 0.005 | 0.858
3 | N#Cc1c(-c2cc3ccccc3nc2N2CCOCC2)cc(-c2cccc(O)c2)nc1OCC(=O)Nc1ccccc1 [11a, 2-((3-Cyano-6-(3-hydroxyphenyl)-4-(2-morpholin-4-yl-quinolin-3-yl)pyridin-2-yl)oxy)-N-phenylacetamide] | 336 ± 22 | 158 ± 26 | 243 to 245 | 126 ± 6 | 158 ± 2 | 144 ± 1 | 0.0906 ± 0.012 | 0.911
4 | N#Cc1c(-c2cc3cc(Cl)ccc3[nH]c2=O)cc(-c2cccc(O)c2)nc1S [14b, 4-(6-Chloro-2-oxo-1,2-dihydroquinolin-3-yl)-6-(3-hydroxyphenyl)-2-mercaptopyridine-3-carbonitrile] | 125 ± 2 | 140 ± 4 | 227 to 230 | 135 ± 3 | 146 ± 19 | 196 ± 12 | 0.153 ± 0.005 | 1.342
5 | CC(=O)Oc1cccc(-c2cc(-c3cc4cc(Cl)ccc4nc3N3CCOCC3)c(C#N)c(=O)[nH]2)c1 [7b, 3-(4-(6-Chloro-2-morpholin-4-yl-quinolin-3-yl)-5-cyano-6-oxo-1,6-dihydropyridin-2-yl)phenyl acetate] | 101.6 ± 1 | 135 ± 2 | 189 to 190 | 107 ± 1 | 119 ± 16 | 140 ± 9 | 0.110 ± 0.002 | 1.176

Stronger by IC50 [2], values ahead:

Row | IC50 [2] [nM] | IC50 [3] [nM] | melting point [°C] | IC50 [4] [nM] | IC50 [5] [nM] | Compound | EC50 [1] [nM] | Wi-38 EC100 [1] [µM] | Caco-2 SI [5]
6 | 71.5 ± 1 | 130 ± 11 | 279 to 280 | 181 ± 7 | 63 ± 2 | N#Cc1c(-c2cc3ccccc3nc2N2CCOCC2)cc(-c2cccc(O)c2)nc1OCC(=O)Nc1ccc(Cl)cc1 [11b, N-(4-Chlorophenyl)-2-((3-cyano-6-(3-hydroxyphenyl)-4-(2-morpholin-4-yl-quinolin-3-yl)pyridin-2-yl)oxy)acetamide] | 337 ± 24 | 0.00232 ± 0.001 | 5.349
7 | 78.2 ± 2 | 84.7 ± 3 | 179 to 180 | 92.3 ± 0.1 | 73.9 ± 0.1 | N#Cc1c(-c2cc3ccccc3nc2N2CCOCC2)cc(-c2cccc(O)c2)nc1OCC(=O)O [9a, 2-((3-Cyano-6-(3-hydroxyphenyl)-4-(2-morpholin-4-yl-quinolin-3-yl)pyridin-2-yl)oxy)acetic acid] | 159 ± 4 | 0.0254 ± 0.002 | 2.152
8 | 45.4 | 97.3 ± 8 | 279 to 280 | 380 ± 10 | 55.2 ± 2 | N#Cc1c(-c2cc3cc(Cl)ccc3nc2N2CCOCC2)cc(-c2cccc(O)c2)nc1OCC(=O)O [9b, 2-((4-(6-Chloro-2-morpholin-4-yl-quinolin-3-yl)-3-cyano-6-(3-hydroxyphenyl)pyridin-2-yl)oxy)acetic acid] | 171 ± 1 | 0.134 ± 0.01 | 3.098
9 | 30.9 | 38.8 ± 3 | > 300 | 33.7 | 48.4 ± 5 | N#Cc1c(-c2cc3cc(Cl)ccc3[nH]c2=O)cc(-c2cccc(O)c2)[nH]c1=O [13b, 4-(6-Chloro-2-oxo-1,2-dihydroquinolin-3-yl)-6-(3-hydroxyphenyl)-2-oxo-1,2-dihydropyridine-3-carbonitrile] | 48.6 ± 16 | 0.017 ± 0.002 | 1.005
10 | 86.7 ± 3 | 46.2 ± 2 | 274 to 275 | 96.1 ± 2 | 52.6 ± 0.1 | COc1ccc2nc(N3CCOCC3)c(-c3cc(-c4cccc(O)c4)nc(OCC(=O)O)c3C#N)cc2c1 [9c, 2-((3-Cyano-6-(3-hydroxyphenyl)-4-(6-methoxy-2-morpholin-4-yl-quinolin-3-yl)pyridin-2-yl)oxy)acetic acid] | 276 ± 2 | 0.0754 ± 0.003 | 5.247
11 | 37.8 ± 10 | 45.1 ± 0.1 | 265 to 267 | 42.83 ± 0.3 | 50.8 ± 4 | COc1ccc2nc(N3CCCCC3)c(-c3cc(-c4cccc(O)c4)[nH]c(=O)c3C#N)cc2c1 [5f, 6-(3-Hydroxyphenyl)-4-(6-methoxy-2-(piperidin-1-yl)quinolin-3-yl)-2-oxo-1,2-dihydropyridine-3-carbonitrile] | 29.8 ± 2 | 0.0258 ± 0.008 | 0.587
12 | 55.7 | 62.6 ± 0.1 | 278 to 280 | 96.5 ± 4 | 84.2 ± 5 | COc1ccc2[nH]c(=O)c(-c3cc(-c4cccc(O)c4)nc(S)c3C#N)cc2c1 [14c, 6-(3-Hydroxyphenyl)-2-mercapto-4-(6-methoxy-2-oxo-1,2-dihydroquinolin-3-yl)pyridine-3-carbonitrile] | 166 ± 9 | 0.0972 ± 0.005 | 1.971
